# Assay results: patent US20180168208A1 (priority 2014, published 2018)
# Read-outs that look alike come from different tables or passages of the source.
# Molecular target: T1R1/T1R3 receptor (Felis catus, UniProt E3UMS2)
# Experiment: cell-based
# Format: cell-based
# Excerpt: HEK293 cells that stably express T1R3 and inducibly express T1R1 were exposed to transmembrane compounds alone or in combination with one or more amino acids and/or one or more nucleotides to activate the umami receptor. Activation of the T1R1/T1R3 receptor was detected by a change in intracellular calcium levels using a calcium sensitive fluorescent dye. Cells that express T1R3 but not T1R1 were used as a control. A FLIPR® Tetra or a FlexStation® 3 was used for data capture.
# In each experiment, serial dilutions of up to 10 mM of the transmembrane compound were added to the T1R1/T1R3-expressing cells.
# [1] = + Alanine, Table 17, read-out: EC50 + Alanine
# [2] = +Alanine (20 mM), Table 18, read-out: EC50 +Alanine
# [3] = EC50 + IMP, + IMP (0.2 mM), Table 17
# [4] = EC50 +Alanine + IMP, +Alanine (20 mM) + IMP (0.2 mM), Table 18
# [5] = EC50 +IMP, +IMP (0.2 mM), Table 18
# [6] = compound alone in buffer, Table 17, read-out: EC50 + buffer (alone)
# [7] = compound alone in buffer, Table 18, read-out: EC50 +buffer (alone)
SMILES,"EC50 (EC50 - with IMP (0.2 mM), with 0.2 mM IMP) [mM]","Thres +Alanine (+ Alanine (20 nM), Table 17) [mM]","Max resp % of IMP + Alanine (+ Alanine, Table 17)","Max resp ΔF/F +Alanine (+ Alanine, Table 17)",EC50 [1] [mM],"Max resp % of ALa + IMP (+ IMP (0.2 mM), Table 17)","Thres + IMP (+ IMP (0.2 mM), Table 17) [mM]","Max resp ΔF/F +Alanine (+Alanine (20 mM), Table 18)","Thres +Alanine (+Alanine (20 mM), Table 18) [mM]",EC50 [2] [mM],"Max resp % of Ala +IMP (+IMP (0.2 mM), Table 18)","Max resp ΔF/F +IMP (+IMP (0.2 mM), Table 18)",EC50 [3] [mM],EC50 [4] [mM],EC50 [5] [mM],EC50 [6] [mM],EC50 [7] [mM],activation of T1R1/T1R3 by the compound alone (in words) (compound alone),EC50 (read-out: EC50 + Alanine) [mM]
"N[C@@H](Cc1ccccc1)C(=O)O [Phenylalanine, phenylalanine]",3.4 ± 0.7,,,,,,,,,,,,,,,,,,
"CCC(CC)NC(=O)c1ccc2c(c1)OCCO2 [N-(pentan-3-yl)-2,3-dihydrobenzo[b][1,4]dioxine-6-carboxamide]",,0.3,25.2 % of IMP,0.3125,> 1,70.9 % of ALa,0.075,0.3125,0.3,> 1,70.9 % of Ala,0.8725,0.3,0.2,0.3,> 1,> 1,,
COc1ccc(/C=C/C(=O)NC2CCCCC2C)cc1 (centres unmarked) [(E)-3-(4-methoxyphenyl)-N-(2-methylcyclohexyl) acrylamide],,3,63.2 % of IMP,0.785,> 10,144.0 % of ALa,0.3,0.785,3,> 10,144.0 % of Ala,1.7725,> 3,> 3,> 3,> 10,> 10,,
CSc1ccc(-c2nnn(Cc3ccccn3)n2)cc1 [2-((5-(4-(methylthio)phenyl)-2H-tetrazol-2-yl)methyl)pyridine],,,,,,80.7 % of ALa,0.1575,,,,80.7 % of Ala,0.678,0.63,0.27,0.63,,,,
"CCC(CC)NC(=O)c1ccc(C)c(C)c1 [3,4-dimethyl-N-(pentan-3-yl)benzamide]",,3,97.8 % of IMP,1.2150,> 3,125.7 % of ALa,0.525,1.2150,3,> 3,125.7 % of Ala,1.5475,2.1,1.7,2.1,> 3,> 3,,
COc1ccc(C(=O)NC(C)c2ccccc2)cc1C (centres unmarked) [4-methoxy-3-methyl-N-(1-phenylethyl)benzamide],,3,41.0 % of IMP,0.51,> 3,95.6 % of ALa,0.35,0.51,3,> 3,95.6 % of Ala,1.1775,1.4,1.2,1.4,> 3,> 3,,
"O=C(CN1C(=O)C(=O)N(Cc2ccccc2)C1=O)c1ccccc1 [1-benzyl-3-(2-oxo-2-phenylethyl)imidazolidine-2,4,5-trione]",,1,127.6 % of IMP,1.3,,135.7 % of ALa,0.08,1.3,1,,135.7 % of Ala,1.140,,,,,,,
"CCCC(CCC)C(=O)Nc1ccc2c(c1)OCO2 [N-(benzo[d][1,3]dioxol-5-yl)-2-propylpentanamide]",,,,,,108.0 % of ALa,0.0675,,,,108.0 % of Ala,0.908,0.27,0.09,0.27,0.35,0.35,agonist of T1R1/T1R3 alone,
"CC1CCCC(NC(=O)c2ccc3c(c2)OCO3)C1C (centres unmarked) [N-(2,3-dimethylcyclohexyl) benzo[d][1,3]dioxole-5-carboxamide]",,3,18.1 % of IMP,0.225,,95.4 % of ALa,0.275,0.225,3,> 3,95.4 % of Ala,1.175,1.1,0.6,1.1,2,2,,> 3
O=C(NCCc1ccccc1)C(=O)NCc1cccnc1 [N1-phenethyl-N2-(pyridin-3-ylmethyl)oxalamide],,1,30.2 % of IMP,0.3750,> 1,61.9 % of ALa,0.1,0.3750,1,> 1,61.9 % of Ala,0.7625,> 0.3,0.2,> 0.3,> 1,> 1,,
"CCC(CC)NC(=O)c1ccc(OC)c(OC)c1 [3,4-dimethoxy-N-(pentan-3-yl)benzamide]",,0.3,43.9 % of IMP,0.545,> 10,81.0 % of ALa,0.5,0.545,0.3,> 10,81.0 % of Ala,0.9975,2,> 3,2,> 10,> 10,,
CCC(CC)NC(=O)c1ccc(Br)o1 [5-bromo-N-(pentan-3-yl)furan-2-carboxamide],,1,126.8 % of IMP,1.575,> 3,149.6 % of ALa,0.3,1.575,1,> 3,149.6 % of Ala,1.8425,> 1,> 1,> 1,> 3,> 3,,
